The data set in a line: gradient 5% acetonitrile 3 min, to 50% in 2 min, to 85% in 15 min, held 3 min, 100 µL/min. As to conditions: column: Zorbax Extend-C18 2.1 x 50 mm; eluents: water / acetonitrile, 0.1% formic acid. In a few lines: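 Using water and acetonitrile that each contained 0.1% formic acid, mixtures of ~100 pure standards were separated at 100 μL/min on a Zorbax Extend-C18 column (2.1 × 50 mm, 1.8 μm). The HPLC fed a quadrupole time-of-flight mass spectrometer working in positive and negative ionization mode, with dead and dwell volumes of 40 μL and 900 μL. Data were acquired over 3 months. Retention time was read from computationally picked adduct peaks after manual inspection of each.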
Turning to `Cc1cc(N2CCCC2)n2nc(CN3CCN(c4ccccn4)CC3)nc2n1`, the RP-LC retention time was found to be 553 s.
Regarding `Cc1nnc(N2CCC(C(=O)N3CCOCC3)CC2)c2nn(-c3ccccc3)c(C)c12`, the RP-LC retention time worked out at 620 s.
In the case of `COC(=O)C1=CN(C2CC2)c2cc(N3CCN(C4CCCCC4)CC3)c(F)cc2S1(=O)=O`, the RP-LC retention time was 643 s.
Consider `CCOc1ccc(OCC)c(S(=O)(=O)N2CCN(c3nc(C)cc(N(C)C)n3)CC2)c1`, for which the RP-LC retention time is 733 s.
Compound `O=C(Cn1cnc2nc3c(cc2c1=O)CCCC3)NCCc1ccccc1` yielded an RP-LC retention time of 728 s.
`CCOC(=O)c1ccccc1NC(=O)N1CCOc2ccc(C)cc21` displayed an RP-LC retention time of 1220 s.
In turn, `CCOC(=O)N1CCN(c2nc(Nc3ccc(OC)cc3)c3nccnc3n2)CC1` registered an RP-LC retention time of 670 s.
The figure for `COC(=O)c1nnn(-c2cc(C)ccc2OC)c1C(=O)OC` is 862 s; for `Cc1ccc(NS(=O)(=O)c2cc(-c3[nH]ncc3C(=O)N(C)C)oc2C)c(C)c1` it is 739 s; for `Cc1ccc(N2CC(c3nc(Cn4cnc5ccccc5c4=O)no3)CC2=O)cc1C` (centres undefined) it is 789 s.
For `CSc1cccc(NC(=O)Nc2cccc(-c3ccc(N4CCOCC4)nn3)c2)c1` the value was 742 s.
`CCCNC(=O)CC1CCN(C(=O)c2[nH]c(C)c(C(=O)OCC)c2C)CC1` displayed an RP-LC retention time of 683 s.
For `Cc1nc(-c2cccc(-c3noc(-c4ccc5cc[nH]c5c4)n3)c2)cs1`, the RP-LC retention time turned out to be 1230 s.
With `O=C(CCC1CCN(c2cc(NC3CC3)ncn2)CC1)NCCN1CCc2ccccc2C1`, the RP-LC retention time was determined as 574 s.
On to `CC1(C)c2ccccc2-c2nc3ccccc3cc2C1O` (centres undefined), for which the RP-LC retention time worked out at 890 s.
Take `Cc1ccc(-c2nnc(-c3cccc(S(=O)(=O)NC(C)(C)CO)c3)o2)cc1`: the RP-LC retention time was 955 s.
In the case of `Cc1nc2cc3c(cc2n1CC(=O)NCc1ccc(Cl)cc1)OCCO3`, the RP-LC retention time was 652 s.
The figure for `Cc1noc(C2CN(C(=O)c3ccc(=O)n(C)n3)C2)n1` is 530 s.
For the compound `Cc1cc(C)cc(S(=O)(=O)N2CCCN(c3ccc(=O)n(-c4ccccc4)n3)CC2)c1`, the RP-LC retention time came out at 901 s.
As for `CCc1ccc2[nH]c3c(c(=O)c2c1)CN(CC(=O)NCc1cccc(OC)c1)CC3`, the RP-LC retention time came to 629 s.
On to `CC(C)c1nncn1C1CCN(S(=O)(=O)Cc2ccc(Cl)cc2)CC1`, for which the RP-LC retention time was determined as 742 s.
`Cc1ccc(-n2nc(C(=O)N3CCN(c4ccccn4)CC3)c(=O)n(C)c2=O)cc1` returned an RP-LC retention time of 625 s.
With `CCOCCn1c(-c2ccccc2Cl)nc2ccccc21`, the RP-LC retention time was determined as 707 s.
On to `CCOC(=O)C1CCN(C(=O)Cn2nc3cc(-c4ccccc4)nc(C)n3c2=O)CC1`, for which the RP-LC retention time stood at 858 s.
For `CCOc1ccc(C2Cn3nnc(-c4nc(C)no4)c3CO2)cc1` (centres undefined) the value was 917 s; for `O=C(NCCC1=CCCCC1)C1CCN(c2cnc(N3CCCCC3)nc2)CC1`, 872 s.
The figure for `CCn1nccc1C(=O)N1C[C@@H]2C[C@H](NC(=O)c3ccccc3)[C@H]1C2` is 673 s; for `O=C(Nc1ccc(S(=O)(=O)Nc2nccs2)cc1)c1ccc([N+](=O)[O-])o1` it is 641 s; for `CNC(=O)N1CC(C)Oc2ccc(C)cc21` (centres undefined) it is 765 s.
Compound `Cn1cnnc1C1CCCCN1S(=O)(=O)c1cccs1` (centres undefined) returned an RP-LC retention time of 639 s.
Turning to `O=C(CNC(=O)c1ccccc1)Nc1nc2ccccc2[nH]1`, the RP-LC retention time is 598 s.
`CCOc1ccccc1NC(=O)N1CCc2nc[nH]c2C1` had an RP-LC retention time of 577 s.
Take `O=C(c1ccc2c(c1)OCO2)N1CCCCC1`: the RP-LC retention time was 722 s.
As to `CSc1ccccc1NC(=O)C(=O)NCC1CCN(C(=O)Oc2ccccc2)CC1`, the RP-LC retention time worked out at 998 s.

These data come from the METLIN SMRT retention time set (Domingo-Almenara et al. 2019).
